Like-named read-outs stand apart in the source and are kept apart here.
Experiments:
COLO-205 = experiment: Two-dose antiproliferative screening, SRB assay, COLO-205; format: cell-based, human; settings: triplicates; for Growth Inhibition (%) COLO-205 1 μM Average: 72 h; for inhibition at 1 µM / inhibition at 10 µM: Homo sapiens, COLO 205, 72 h; for inhibition at 1 µM: read-out: Growth Inhibition (%) COLO-205 1 μM Average; for inhibition at 10 µM: read-out: Growth Inhibition (%) COLO-205 10 μM Average
Method: (§1) MCF-7(breast adenocarcinoma), PC-3 (prostate cancer) and COLO-205 (colorectal cancer) were obtained from Nawah Scientific inc., (Mokatam, Cairo, Egypt). Cells were maintained in Dulbecco’s Modified Eagle’s media (DMEM media) supplemented with […] of streptomycin, 100 units/mL of penicillin and 10% of heat-inactivated fetal bovine serum in humidified, 5% (v/v) CO2 atmosphere at 37 °C.
(§2) Cell viability was assessed by the sulforhodamine B (SRB) assay. Aliquots of cell suspension (5 × 10^3 cells, 100 μL) were transferred into 96 well plates and incubated in complete media for 24 h. Cells were treated with another aliquot media (100 μL) containing compounds 3a–f, 4a–f, 6a–f, 7a–f, 9a–b at concentrations of 1 and 10 μM). After 72 h of drug exposure, cells were fixed by replacing media with trichloroacetic acid (TCA, 10%, 150 μL) and incubated at 4 °C for 1 h. The TCA solution was removed, and the cells were washed five times with distilled water. Aliquots of SRB solution (0.4%w/v, 70 μL) were added and incubated in a dark place at room temperature for 10 min. Plates were washed three times with 1% acetic acid and allowed to air dry overnight. Then, a solution of TRIS base and TRIS HCl (TRIS buffer, 10 mM, 150 μL) was added to dissolve protein bound SRB stain. The absorbance was measured at 540 nm using BMGLABTECH®–FLUOstar omega micro-plate reader (Ortenberg, Germany).

CK1 = experiment: Casein Kinase 1 (CK1) 33P-ATP assay; format: biochemical
Method: The active CK1, kinase assay buffer, substrate solution and kinase dilution buffer were thawed on ice (^33P-ATP assay Cocktail). In a precooled microcentrifuge tube, 10 μL of kinase solution, 5 μL of substrate solution and 5 μL of cold water (4 °C) were added, then a blank control was set up. Each reaction was initiated by adding 5 μL of ^33P-ATP assay cocktail then incubated for 15 min in a water bath (30 °C), then 20 μL of the reaction mixture were spotted onto an individually precut strip of phosphocellulose P81 paper and allowed to air dry followed by washing using 1% H2SO4 with constant gentle stirring. A radioactive control was set up then 5 μL of γ-^33P-ATP assay cocktail was spotted on P81 paper, the sample was allowed to air dry for 2 min then the radioactivity count was recorded.

PC-3 = experiment: Two-dose antiproliferative screening, SRB assay, PC-3; format: cell-based; settings: triplicates; for Growth Inhibition (%) PC-3 1 μM Average: 72 h; for inhibition at 1 µM / inhibition at 10 µM: Homo sapiens, PC-3, 72 h; for inhibition at 1 µM: read-out: Growth Inhibition (%) PC-3 1 μM Average; for inhibition at 10 µM: read-out: Growth Inhibition (%) PC-3 10 μM Average
Method: as §1, §2

A549 cell line = experiment: MTT assay for A549 cell line; format: cell-based
Method: MTT assay for A549 cell line. Cell Line cells were obtained from American Type Culture Collection. Cells were cultured using DMEM (Invitrogen/Life Technologies, Carlsbad, CA, USA) supplemented with 10% FBS (Hyclone, Logan, UT, USA), 10 μg/mL of insulin (Sigma, St. Louis, MI, USA), and 1% penicillin-streptomycin. All the other chemicals and reagents were from Sigma (St. Louis, MI, USA) or Invitrogen (Carlsbad, CA, USA). Cells were plated (cells density 1.2–1.8 × 10,000 cells/well) in a volume of 100 µL complete growth medium + 100 μL of the tested compound per well in a 96-well plate for 24 h before the application of MTT assay protocol as reported, Supplementary Materials.
Cell Line cells were obtained from American Type Culture Collection , cells were cultured using DMEM (Invitrogen/Life Technologies) supplemented with 10% FBS (Hyclone,), 10 ug/ml of insulin (Sigma), and 1% penicillin-streptomycin. All of the other chemicals and reagents were from Sigma, or Invitrogen.
Plate cells (cells density 1.2 – 1.8 × 10,000 cells/well) in a volume of 100µl complete growth medium + 100 ul of the tested compound per well in a 96-well plate for 24 hours before the MTT assay .
1. Remove culture medium to a centrifuge tube.
2. Briefly rinse the cell layer with 0.25% (w/v) Trypsin 0.53 mM EDTA solution to remove all traces of serum which contains Trypsin inhibitor.
3. Add 2.0 to 3.0 ml of Trypsin EDTA solution to flask and observe cells under an inverted microscope until cell layer is dispersed (usually within 5 to 15 minutes). […]
waiting for the cells to detach. Cells that are difficult to detach may be placed at 37°C […]
4. Add 6.0 to 8.0 mL of complete growth medium and aspirate cells by gently
5. […]
6. Spectrophotometrically measure absorbance at a wavelength of 570 nm. Measure the background absorbance of multiwell plates at 690 nm and subtract from the […] measurement. Tests performed in multiwell plates can be read using the appropriate type of plate reader or the contents of individual wells may be transferred to appropriate size cuvets for spectrophotometric measurement.

Pgp = Pgp ELISA assay in MCF-7 cells; format: in vitro ADME, human
Method: PgP concentration was measured using ELISA kit Cat No: MBS722065) for human PgP assay. The Pgp ELISA kit employs a competitive enzyme immunoassay technique using a polyclonal anti-Pgp antibody and a PgpHRP conjugate. The test sample and buffer were incubated together with the PgpHRP conjugate on a precoated plate for one hour. After the incubation period, the wells were decanted and washed five times. The wells were then incubated with a substrate for the HRP enzyme. The enzyme-substrate reaction product formed a blue complex. Finally, a stop solution was added to stop the reaction, which then turned the solution yellow. Color intensity was measured spectrophotometrically at 450 nm in a microplate reader. The intensity of the color was inversely proportional to the Pgp concentration, since the Pgp of the samples and the PgpHRP conjugate competed for the binding site of the anti-Pgp antibody. Because the number of sites is limited, there were fewer sites left to bind to the PgpHRP conjugate as the sample Pgp occupies more sites. A standard curve was drawn that relates the intensity of the color to the concentration of the standards. The Pgp concentration in each sample was interpolated from this standard curve.

SMILES | Growth Inhibition (%) COLO-205 1 μM Average (COLO-205) | inhibition at 1 µM (COLO-205) | inhibition at 10 µM (COLO-205) | CK 1 inhibition IC50 (as printed in μM in discussion) (CK1) | Casein Kinase I Inhibition IC50 (CK1) | Casein Kinase I Inhibition IC50 (CK1; IC261) | Growth Inhibition (%) PC-3 1 μM Average (PC-3) | inhibition at 1 µM (PC-3) | inhibition at 10 µM (PC-3) | IC50 (A549 cell line; Homo sapiens, A549) | IC50 (A549 cell line; listed as 4a (IC261)) | Pgp occupied by compound (Pgp)
COc1cc(OC)c(/C=C2/C(=O)Nc3ccccc32)c(OC)c1 [Compound 4a, (E)-3-(2,4,6-trimethoxybenzylidene)indolin-2-one, reference compound] | 63.60% | 64% | 77.5% | 2.39 µM | 2.39 µg/mL | 2.39 (4a, IC261) μg/mL | 59.19% | 60% | 67.9% | 28 µM | 28.4 µM | –
COc1cc(OC)c(/C=C2/C(=O)Nc3cc(Cl)ccc32)c(OC)c1 [Compound 4b, (E)-6-chloro-3-(2,4,6-trimethoxybenzylidene)indolin-2-one] | 73.32% | 74% | 82.5% | – | 1.92 µg/mL | – | 64.05% | 65% | 71.7% | 9.5 µM | – | around 35%
